Source: PubChem BioAssay AID2060615 (Molecular Pharmacology Branch, DTP, NCI, 2025)

Test system: 496974-208-R-J2-PDC complex spheroids, growth % test/control
Assay: Anticancer human tumor 496974-208-R-J2-PDC patient-derived pancreatic carcinoma cell line growth inhibition [CLK]
Settings: for IC50: curve of first compound; for viability, T/C: stronger effect = lower value
Method in brief: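 Multi-cell-type spheroids combined patient-derived tumor cells with HUVEC endothelial cells and human mesenchymal stem cells. Paired agents were dosed in half-log steps down from about clinical Cmax, or from 10 microM where Cmax was unknown.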

[1] = second compound 0.0316 µM, first compound 0.0316 µM
[2] = second compound 0.0316 µM, first compound 0.1 µM
[3] = second compound 0.0316 µM, first compound 0.316 µM
[4] = second compound 0.0316 µM, first compound 1 µM
[5] = second compound 0.0316 µM, first compound 3.16 µM
[6] = second compound 0.0316 µM, first compound 10 µM
[7] = second compound 0.1 µM, first compound 0.0316 µM
[8] = second compound 0.1 µM, first compound 0.1 µM
[9] = second compound 0.1 µM, first compound 0.316 µM
[10] = second compound 0.1 µM, first compound 1 µM
[11] = second compound 0.1 µM, first compound 3.16 µM
[12] = second compound 0.1 µM, first compound 10 µM
[13] = second compound 0.316 µM, first compound 0.0316 µM
[14] = second compound 0.316 µM, first compound 0.1 µM
[15] = second compound 0.316 µM, first compound 0.316 µM
[16] = second compound 0.316 µM, first compound 1 µM
[17] = second compound 0.316 µM, first compound 3.16 µM
[18] = second compound 0.316 µM, first compound 10 µM
[19] = second compound 1 µM, first compound 0.0316 µM
[20] = second compound 1 µM, first compound 0.1 µM
[21] = second compound 1 µM, first compound 0.316 µM
[22] = second compound 1 µM, first compound 1 µM
[23] = second compound 1 µM, first compound 3.16 µM
[24] = second compound 1 µM, first compound 10 µM
[25] = second compound 3.16 µM, first compound 0.0316 µM
[26] = second compound 3.16 µM, first compound 0.1 µM
[27] = second compound 3.16 µM, first compound 0.316 µM
[28] = second compound 3.16 µM, first compound 1 µM
[29] = second compound 3.16 µM, first compound 3.16 µM
[30] = second compound 3.16 µM, first compound 10 µM
[31] = second compound 10 µM, first compound 0.0316 µM
[32] = second compound 10 µM, first compound 0.1 µM
[33] = second compound 10 µM, first compound 0.316 µM
[34] = second compound 10 µM, first compound 1 µM
[35] = second compound 10 µM, first compound 3.16 µM
[36] = second compound 10 µM, first compound 10 µM
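Note: spheroids exposed to the drugs for 7 days before readout.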
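Throughout, for viability, T/C: 100% = DMSO vehicle control wells.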

With `CC1(C)CCC(CN2CCN(c3ccc(C(=O)NS(=O)(=O)c4ccc(NCC5CCOCC5)c([N+](=O)[O-])c4)c(Oc4cnc5[nH]ccc5c4)c3)CC2)=C(c2ccc(Cl)cc2)C1` + CNC(=O)c1ccc(Nc2nc(OC3CCCC3)c3c(-c4ccc5nc(C)oc5c4)c[nH]c3n2)c(OC)c1 the IC50 (second compound 0.0316 µM) was 8.41 µM, the IC50 (second compound 0.1 µM) was 7.09 µM and the IC50 (second compound 0.316 µM) was 9.3 µM. It also gave an IC50 (second compound 1 µM) of 5.67 µM, an IC50 (second compound 3.16 µM) of 4.11 µM and an IC50 (second compound 10 µM) of 3.9 µM. The viability, T/C [1] was 87.7%, the viability, T/C [2] was 93.6% and the viability, T/C [3] was 86.4%. The viability, T/C [4] was 92.4%, the viability, T/C [5] was 84.4% and the viability, T/C [6] was 43.8%. The viability, T/C [7] was 75.1%, the viability, T/C [8] was 73.3% and the viability, T/C [9] was 76.8%. The viability, T/C [10] was 82.8%, the viability, T/C [11] was 72.8% and the viability, T/C [12] was 39.9%. It also gave a viability, T/C [13] of 75.8%, a viability, T/C [14] of 76.2% and a viability, T/C [15] of 73.6%. The viability, T/C [16] was 85.3%, the viability, T/C [17] was 71% and the viability, T/C [18] was 48.5%. It also gave a viability, T/C [19] of 71%, a viability, T/C [20] of 71.7% and a viability, T/C [21] of 73.5%. The viability, T/C [22] was 67.3%, the viability, T/C [23] was 61.1% and the viability, T/C [24] was 39.5%. For the same compound, the viability, T/C [25] was 59.5%, the viability, T/C [26] was 56.2% and the viability, T/C [27] was 61.5%. For the same compound, the viability, T/C [28] was 62.5%, the viability, T/C [29] was 52.6% and the viability, T/C [30] was 35.5%. It also gave a viability, T/C [31] of 55.8%, a viability, T/C [32] of 55.2% and a viability, T/C [33] of 54.3%. It also gave a viability, T/C [34] of 50.1%, a viability, T/C [35] of 54.4% and a viability, T/C [36] of 32.9%.
In the case of `CC1COCCN1c1cc(C2(S(C)(=N)=O)CC2)nc(-c2ccnc3[nH]ccc23)n1` (stereo not drawn) + CNC(=O)c1ccc(Nc2nc(OC3CCCC3)c3c(-c4ccc5nc(C)oc5c4)c[nH]c3n2)c(OC)c1, the IC50 (second compound 0.0316 µM) is reported as 6.5 µM, the IC50 (second compound 0.1 µM) is reported as 5.52 µM and the IC50 (second compound 0.316 µM) is reported as 4.78 µM. The IC50 (second compound 1 µM) was 2.15 µM, the IC50 (second compound 3.16 µM) was 0.953 µM and the IC50 (second compound 10 µM) was 0.971 µM. The viability, T/C [1] was 101%, the viability, T/C [2] was 98.3% and the viability, T/C [3] was 91.2%. It also gave a viability, T/C [4] of 83.2%, a viability, T/C [5] of 62.8% and a viability, T/C [6] of 42.1%. It also gave a viability, T/C [7] of 87.2%, a viability, T/C [8] of 78.4% and a viability, T/C [9] of 77.1%. The viability, T/C [10] was 74.4%, the viability, T/C [11] was 53.5% and the viability, T/C [12] was 43%. The viability, T/C [13] was 72.6%, the viability, T/C [14] was 69.3% and the viability, T/C [15] was 79%. For the same compound, the viability, T/C [16] was 80%, the viability, T/C [17] was 56.4% and the viability, T/C [18] was 38.7%. For the same compound, the viability, T/C [19] was 73.8%, the viability, T/C [20] was 66.8% and the viability, T/C [21] was 71%. It also gave a viability, T/C [22] of 62.8%, a viability, T/C [23] of 43.5% and a viability, T/C [24] of 32.6%. It also gave a viability, T/C [25] of 63.7%, a viability, T/C [26] of 63.2% and a viability, T/C [27] of 54.6%. It also gave a viability, T/C [28] of 52.5%, a viability, T/C [29] of 36.9% and a viability, T/C [30] of 27.6%. It also gave a viability, T/C [31] of 51.8%, a viability, T/C [32] of 58% and a viability, T/C [33] of 54.5%. It also gave a viability, T/C [34] of 49.8%, a viability, T/C [35] of 31.9% and a viability, T/C [36] of 21.8%.
With `NC(=O)C(=Cn1cnc(-c2cc(C(F)(F)F)cc(C(F)(F)F)c2)n1)c1cncnc1` + CNC(=O)c1ccc(Nc2nc(OC3CCCC3)c3c(-c4ccc5nc(C)oc5c4)c[nH]c3n2)c(OC)c1 the IC50 (second compound 0.0316 µM) was 0.158 µM, the IC50 (second compound 0.1 µM) was 0.0816 µM and the IC50 (second compound 0.316 µM) was < 0.00949 µM. For the same compound, the IC50 (second compound 1 µM) was < 0.00949 µM, the IC50 (second compound 3.16 µM) was < 0.00949 µM and the IC50 (second compound 10 µM) was < 0.00949 µM. The viability, T/C (second compound 0.0316 µM, first compound 0.00949 µM) was 83.3%, the viability, T/C (second compound 0.0316 µM, first compound 0.03 µM) was 77.3% and the viability, T/C (second compound 0.0316 µM, first compound 0.0949 µM) was 65.1%. For the same compound, the viability, T/C (second compound 0.0316 µM, first compound 0.3 µM) was 31.4%, the viability, T/C (second compound 0.0316 µM, first compound 0.949 µM) was 20.5% and the viability, T/C (second compound 0.0316 µM, first compound 3 µM) was 14.1%. It also gave a viability, T/C (second compound 0.1 µM, first compound 0.00949 µM) of 68.5%, a viability, T/C (second compound 0.1 µM, first compound 0.03 µM) of 56.3% and a viability, T/C (second compound 0.1 µM, first compound 0.0949 µM) of 52%. The viability, T/C (second compound 0.1 µM, first compound 0.3 µM) was 27.9%, the viability, T/C (second compound 0.1 µM, first compound 0.949 µM) was 20.9% and the viability, T/C (second compound 0.1 µM, first compound 3 µM) was 16.8%. The viability, T/C (second compound 0.316 µM, first compound 0.00949 µM) was 47.2%, the viability, T/C (second compound 0.316 µM, first compound 0.03 µM) was 48.6% and the viability, T/C (second compound 0.316 µM, first compound 0.0949 µM) was 43.9%. It also gave a viability, T/C (second compound 0.316 µM, first compound 0.3 µM) of 21.4%, a viability, T/C (second compound 0.316 µM, first compound 0.949 µM) of 18.8% and a viability, T/C (second compound 0.316 µM, first compound 3 µM) of 12.4%. For the same compound, the viability, T/C (second compound 1 µM, first compound 0.00949 µM) was 46.6%, the viability, T/C (second compound 1 µM, first compound 0.03 µM) was 40.6% and the viability, T/C (second compound 1 µM, first compound 0.0949 µM) was 29.8%. The viability, T/C (second compound 1 µM, first compound 0.3 µM) was 16.1%, the viability, T/C (second compound 1 µM, first compound 0.949 µM) was 14.3% and the viability, T/C (second compound 1 µM, first compound 3 µM) was 9.67%. For the same compound, the viability, T/C (second compound 3.16 µM, first compound 0.00949 µM) was 44.9%, the viability, T/C (second compound 3.16 µM, first compound 0.03 µM) was 28.7% and the viability, T/C (second compound 3.16 µM, first compound 0.0949 µM) was 20.2%. The viability, T/C (second compound 3.16 µM, first compound 0.3 µM) was 12.1%, the viability, T/C (second compound 3.16 µM, first compound 0.949 µM) was 10.8% and the viability, T/C (second compound 3.16 µM, first compound 3 µM) was 5.23%. It also gave a viability, T/C (second compound 10 µM, first compound 0.00949 µM) of 39.4%, a viability, T/C (second compound 10 µM, first compound 0.03 µM) of 28.8% and a viability, T/C (second compound 10 µM, first compound 0.0949 µM) of 19.1%. It also gave a viability, T/C (second compound 10 µM, first compound 0.3 µM) of 9.35%, a viability, T/C (second compound 10 µM, first compound 0.949 µM) of 8.25% and a viability, T/C (second compound 10 µM, first compound 3 µM) of 3.76%.
Work on `Nc1ccccc1NC(=O)c1ccc(CNC(=O)OCc2cccnc2)cc1` + CNC(=O)c1ccc(Nc2nc(OC3CCCC3)c3c(-c4ccc5nc(C)oc5c4)c[nH]c3n2)c(OC)c1 yielded an IC50 (second compound 0.0316 µM) of 4.52 µM, an IC50 (second compound 0.1 µM) of 4.53 µM and an IC50 (second compound 0.316 µM) of 4.36 µM. The IC50 (second compound 1 µM) was 4.23 µM, the IC50 (second compound 3.16 µM) was 3.34 µM and the IC50 (second compound 10 µM) was 3.34 µM. The viability, T/C [1] was 92.7%, the viability, T/C [2] was 92.8% and the viability, T/C [3] was 89.9%. It also gave a viability, T/C [4] of 78%, a viability, T/C [5] of 75.3% and a viability, T/C [6] of 0.72%. The viability, T/C [7] was 81.8%, the viability, T/C [8] was 72.5% and the viability, T/C [9] was 66.3%. For the same compound, the viability, T/C [10] was 61.4%, the viability, T/C [11] was 73.6% and the viability, T/C [12] was 3.35%. The viability, T/C [13] was 78.6%, the viability, T/C [14] was 72.9% and the viability, T/C [15] was 74.2%. The viability, T/C [16] was 56.1%, the viability, T/C [17] was 69.2% and the viability, T/C [18] was 1.48%. The viability, T/C [19] was 69.1%, the viability, T/C [20] was 65.1% and the viability, T/C [21] was 67.8%. For the same compound, the viability, T/C [22] was 58.5%, the viability, T/C [23] was 68.6% and the viability, T/C [24] was 3%. It also gave a viability, T/C [25] of 63.5%, a viability, T/C [26] of 59.2% and a viability, T/C [27] of 55%. The viability, T/C [28] was 49.7%, the viability, T/C [29] was 53.5% and the viability, T/C [30] was 4.03%. It also gave a viability, T/C [31] of 60.2%, a viability, T/C [32] of 53.4% and a viability, T/C [33] of 52.1%. It also gave a viability, T/C [34] of 42.9%, a viability, T/C [35] of 53.2% and a viability, T/C [36] of 4.38%.
